Results on 36 compounds are retold here after patent US20180072997A1, “INHIBITORS OF HUMAN IMMUNODEFICIENCY VIRUS REPLICATION” (ViiV HEATHCARE UK (NO.5) LIMITED, priority 2015, published 2018).

The CC50 is the concentration giving 50% cytotoxicity. What is called EC50 is the concentration needed to bring the measured effect to its halfway point.

Data set [1] can be described thus: Compound cytotoxicity, XTT-based colorimetric assay. Type of data set: cell-based. The note with it: human, uninfected MT2 cells, day 4, XTT. The method, boiled down:
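Run under the antiviral-assay protocol but without virus. Viability was read on day 4 and CC50 values were derived from the readout.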
Background: Tetrazolium assays rely on reduction of a dye to a coloured formazan, in cell work by metabolically active cells.

The subject of data set [2] is recombinant NL4-3 virus (Renilla luciferase in nef) in MT-2 cells. Briefly: whole plant or invertebrate. In kind it is cell-based, HIV. The note with it: luciferase activity. In short, it runs like this:
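MT-2 cells infected for 4-5 days with NL4-3 reporter virus (Renilla luciferase replacing part of nef, produced by transfection of 293T cells) in the presence of serial compound dilutions. Antiviral activity quantified by luciferase activity read with a live-cell substrate.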

The mark [3] stands for this setting: MT-2 cells infected for 4-5 days with recombinant NL4-3 Renilla luciferase virus.
Where [4] appears, read: Renilla, NL43, MT-2 cells infected for 4-5 days with recombinant NL4-3 Renilla luciferase virus.

On to `COc1ccc(N(C)C(=O)[C@H](Cc2cc(F)cc(F)c2)NC(=O)C(C)n2c(=O)n(C(C)C(=O)N[C@@H](Cc3cc(F)cc(F)c3)C(=O)N(C)c3ccc(OC)cc3)c3ccccc32)cc1` (single isomer, unassigned) [Example 132], for which half-maximal cytotoxicity in data set [1] (CC50 at 4 days) was put at 7.3 µM. Moreover, in data set [2] (setting [3]), the EC50 amounted to 1.94 µM.
In data set [1], `CN(C(=O)[C@H](Cc1cc(F)cc(F)c1)NC(=O)NS(=O)(=O)N[C@@H](Cc1cc(F)cc(F)c1)C(=O)N(C)c1cnc2scnc2c1)c1cnc2scnc2c1` [Example 226] gave a CC50 at 4 days of at least 100 µM. In data set [2] (setting [4]), the EC50 was determined as 8.92 µM.
Regarding `C=CCN(C(=O)[C@H](Cc1cc(F)cc(F)c1)NC(=O)NS(=O)(=O)N[C@@H](Cc1cc(F)cc(F)c1)C(=O)N(CC=C)c1ccc(OC)nc1)c1ccc(OC)nc1` [Example 194], in data set [1], half-maximal cytotoxicity (CC50 at 4 days) was put at 41.9 µM. Also, the EC50 in data set [2] (setting [4]) turned out to be 0.58 µM.
On the same counts, the results for `COc1ccc(N(C)C(=O)[C@H](Cc2ccccc2)NC(=O)Cn2c(=O)n(CC(=O)N[C@@H](Cc3ccccc3)C(=O)N(C)c3ccc(OC)cc3)c3cc([N+](=O)[O-])ccc32)cc1` [Example 87] are 11.1 µM and 0.09 µM.
The corresponding values for `CN(C(=O)[C@H](Cc1cc(F)cc(F)c1)NC(=O)NS(=O)(=O)N[C@@H](Cc1cc(F)cc(F)c1)C(=O)N(C)c1ccc(OC(F)(F)F)cc1)c1ccc(OC(F)(F)F)cc1` [Example 189] are 8.2 µM and 0.01 µM.
On the same counts, the results for `CCN(C(=O)[C@H](Cc1cc(F)cc(F)c1)NC(=O)NS(=O)(=O)N[C@@H](Cc1cc(F)cc(F)c1)C(=O)N(CC)c1ccc(NC(=O)OC)cc1)c1ccc(NC(=O)OC)cc1` [Example 149] are 79.5 µM and 1.64 µM.
On to `COc1ccc(N(C)C(=O)[C@H](Cc2cc(F)cc(F)c2)NC(=O)COc2nc3ccccc3n(CC(=O)N[C@@H](Cc3cc(F)cc(F)c3)C(=O)N(C)c3ccc(OC)cc3)c2=O)cc1` [Example 96], for which the CC50 at 4 days in data set [1] is at least 50 µM. The EC50 in data set [2] (setting [4]) was 0.12 µM.
`CN(C(=O)[C@H](Cc1cc(F)cc(F)c1)NC(=O)NS(=O)(=O)N[C@@H](Cc1cc(F)cc(F)c1)C(=O)N(C)c1ccc(C2CC2)cc1)c1ccc(C2CC2)cc1` [Example 198] came in with a CC50 at 4 days in data set [1] of 12.5 µM. The EC50 in data set [2] (setting [4]) was determined as 0.01 µM.
`CN(C(=O)[C@H](Cc1cc(F)cc(F)c1)NC(=O)c1ccc(F)c(C(=O)N[C@@H](Cc2cc(F)cc(F)c2)C(=O)N(C)c2ccc3snnc3c2)c1)c1ccc2snnc2c1` [Example 179]: the CC50 at 4 days in data set [1] is at least 100 µM. Moreover, the concentration for a half-maximal effect (EC50) in data set [2] (setting [4]) was determined as 0.34 µM.
The corresponding values for `COc1ccc(N(C)C(=O)[C@H](Cc2ccccc2)NC(=O)c2cncc(C(=O)N[C@@H](Cc3ccccc3)C(=O)N(C)c3ccc(OC)cc3)c2)cc1` [Example 99] are 1.8 µM and 0.02 µM.
The corresponding values for `CN(C(=O)[C@H](Cc1cc(F)cc(F)c1)NC(=O)Cn1c(=O)n(CC(=O)N[C@@H](Cc2cc(F)cc(F)c2)C(=O)N(C)c2ccc3scnc3c2)c2ccccc21)c1ccc2scnc2c1` [Example 119] are at least 100 µM and 0.01 µM.
On the same counts, the results for `CN(C(=O)[C@H](Cc1cc(F)cc(F)c1)NC(=O)NS(=O)(=O)N[C@@H](Cc1cc(F)cc(F)c1)C(=O)N(C)c1ccc2c(c1)ncn2C)c1ccc2c(c1)ncn2C` [Example 186] are at least 100 µM and 6.15 µM.
In turn, `CCc1ncc(N(C)C(=O)[C@H](Cc2cc(F)cc(F)c2)NC(=O)NS(=O)(=O)N[C@@H](Cc2cc(F)cc(F)c2)C(=O)N(C)c2cnc(CC)nc2)cn1` [Example 208] registered a CC50 at 4 days in data set [1] of 37.7 µM. For the same compound, the concentration for a half-maximal effect (EC50) in data set [2] (setting [4]) stood at 16 µM.
With `C=CCN(C(=O)[C@H](Cc1cc(F)cc(F)c1)NC(=O)c1nccnc1C(=O)N[C@@H](Cc1cc(F)cc(F)c1)C(=O)N(CC=C)c1ccc(OC)cc1)c1ccc(OC)cc1` [Example 212], in data set [1], the CC50 at 4 days was at least 100 µM. Moreover, the EC50 in data set [2] (setting [4]) amounted to 3.73 µM.
The corresponding values for `COc1ccc(N(C)C(=O)[C@H](Cc2cc(F)cc(F)c2)NC(=O)c2cc(Cl)c(Cl)cc2C(=O)N[C@@H](Cc2cc(F)cc(F)c2)C(=O)N(C)c2ccc(OC)cc2)cc1` [Example 255] are 10 µM and 0.08 µM.
On the same counts, the results for `C=CCN(C(=O)[C@H](Cc1cc(F)cc(F)c1)NS(=O)(=O)CCCS(=O)(=O)N[C@@H](Cc1cc(F)cc(F)c1)C(=O)N(CC=C)c1ccc(OC)cc1)c1ccc(OC)cc1` [Example 164] are at least 100 µM and 2.64 µM.
The corresponding values for `COc1ccc(N(C)C(=O)[C@H](Cc2ccccc2)NC(=O)[C@H](Cc2ccccc2)NC(=O)N[C@@H](Cc2ccccc2)C(=O)N[C@@H](Cc2ccccc2)C(=O)N(C)c2ccc(OC)cc2)cc1` [Example 62] are at least 100 µM and 0.49 µM.
`CN(C(=O)[C@H](Cc1cc(F)cc(F)c1)NC(=O)NS(=O)(=O)N[C@@H](Cc1cc(F)cc(F)c1)C(=O)N(C)c1ccc2snnc2c1)c1ccc2snnc2c1` [Example 177] displayed a cytotoxic concentration (CC50) at 4 days in data set [1] of 88 µM. Also, the EC50 in data set [2] (setting [4]) was found to be 0.27 µM.
In data set [1], `COc1ccc(N(C)C(=O)[C@H](Cc2cc(F)cc(F)c2)NS(=O)(=O)CS(=O)(=O)N[C@@H](Cc2cc(F)cc(F)c2)C(=O)N(C)c2ccc(OC)cc2)cc1` [Example 201] displayed a cytotoxic concentration (CC50) at 4 days of 12.5 µM. Further, the EC50 in data set [2] (setting [4]) was 0.48 µM.
On the same counts, the results for `CCN(C(=O)[C@H](Cc1cc(F)cc(F)c1)NC(=O)NS(=O)(=O)N[C@@H](Cc1cc(F)cc(F)c1)C(=O)N(CC)c1ccc2oc(=O)n(CC)c2c1)c1ccc2oc(=O)n(CC)c2c1` [Example 156] are at least 50 µM and 24.7 µM.
`COc1ccc(N(C)C(=O)[C@H](Cc2ccccc2)NC(=O)Cn2c(=O)n(CC(=O)N[C@@H](Cc3ccccc3)C(=O)N(C)c3ccc(OC)cc3)c3cc(Cl)ccc32)cc1` [Example 71] returned a CC50 at 4 days in data set [1] of 6.5 µM. Further, the EC50 in data set [2] (setting [4]) amounted to 0.08 µM.
On the same counts, the results for `CN(C(=O)[C@H](Cc1cc(F)cc(F)c1)NC(=O)CN1c2ccccc2N(CC(=O)N[C@@H](Cc2cc(F)cc(F)c2)C(=O)N(C)c2ccc3snnc3c2)S1(=O)=O)c1ccc2snnc2c1` [Example 178] are at least 100 µM and 0.02 µM.
On the same counts, the results for `CN(C(=O)[C@H](Cc1cc(F)cc(F)c1)NC(=O)CN1c2ccccc2N(CC(=O)N[C@@H](Cc2cc(F)cc(F)c2)C(=O)N(C)c2ccc3sncc3c2)S1(=O)=O)c1ccc2sncc2c1` [Example 160] are at least 100 µM and 0.02 µM.
On the same counts, the results for `COc1ccc(N(C)C(=O)[C@H](Cc2ccccc2)NC(=O)CC2(CC(=O)N[C@@H](Cc3ccccc3)C(=O)N(C)c3ccc(OC)cc3)CCCC2)cc1` [Example 78] are at least 50 µM and 50 µM.
`CN(C(=O)[C@H](Cc1cc(F)cc(F)c1)NC(=O)NS(=O)(=O)N[C@@H](Cc1cc(F)cc(F)c1)C(=O)N(C)c1ccc2sc(=O)[nH]c2c1)c1ccc2sc(=O)[nH]c2c1` [Example 175]: in data set [1], the CC50 at 4 days was at least 100 µM. Moreover, the EC50 in data set [2] (setting [4]) turned out to be 0.45 µM.
The corresponding values for `C=CCCN(C(=O)[C@H](Cc1cc(F)cc(F)c1)NS(=O)(=O)NC(=O)N[C@@H](Cc1cc(F)cc(F)c1)C(=O)N(CC=C)c1ccc(OC)cc1)c1ccc(OC)cc1` [Example 123] are 19.2 µM and 0.38 µM.
On the same counts, the results for `COc1ccc(N(C)C(=O)[C@H](Cc2ccccc2)NC(=O)c2ccc(F)c(C(=O)N[C@@H](Cc3ccccc3)C(=O)N(C)c3ccc(OC)cc3)c2)cc1` [Example 106] are 6.3 µM and 0.05 µM.
The corresponding values for `Cc1ncc(N(C)C(=O)[C@H](Cc2cc(F)cc(F)c2)NC(=O)NS(=O)(=O)N[C@@H](Cc2cc(F)cc(F)c2)C(=O)N(C)c2cnc(C)c(Cl)c2)cc1Cl` [Example 225] are 2.3 µM and 0.87 µM.
In data set [1], `COc1ccc(N(C)C(=O)[C@H](Cc2ccccc2)NC(=O)[C@H](C)NC(=O)N[C@@H](C)C(=O)N[C@@H](Cc2ccccc2)C(=O)N(C)c2ccc(OC)cc2)cc1` [Example 104] came in with a CC50 at 4 days of 31 µM. In data set [2] (setting [4]), the EC50 worked out at 0.13 µM.
On the same counts, the results for `COc1ccc(N(C)C(=O)[C@H](Cc2ccccc2)NC(=O)c2cccc(C(=O)N[C@@H](Cc3ccccc3)C(=O)N(C)c3ccc(OC)cc3)c2)cc1` [Example 24] are 4.2 µM and 0.09 µM.
Turning to `CN(C(=O)[C@H](Cc1cc(F)cc(F)c1)NC(=O)NS(=O)(=O)N[C@@H](Cc1cc(F)cc(F)c1)C(=O)N(C)c1ccc(N2CCOCC2)cc1)c1ccc(N2CCOCC2)cc1` [Example 183], in data set [1], the half-maximal cytotoxic concentration (CC50) at 4 days turned out to be 78.9 µM. For the same compound, the EC50 in data set [2] (setting [4]) was determined as 0.09 µM.
The corresponding values for `C=CCN(C(=O)[C@H](Cc1cc(F)cc(F)c1)NC(=O)c1ccc(F)c(C(=O)N[C@@H](Cc2cc(F)cc(F)c2)C(=O)N(CC=C)c2ccc(OC)cc2)c1)c1ccc(OC)cc1` [Example 139] are at least 33.3 µM and 0.04 µM.
The corresponding values for `CCN(C(=O)[C@H](Cc1cc(F)cc(F)c1)NC(=O)NS(=O)(=O)N[C@@H](Cc1cc(F)cc(F)c1)C(=O)N(CC)c1ccc(OC(F)F)cc1)c1ccc(OC(F)F)cc1` [Example 150] are 24.6 µM and 0.01 µM.
The corresponding values for `Cc1ccc(N(C)C(=O)[C@H](Cc2cc(F)cc(F)c2)NC(=O)NS(=O)(=O)N[C@@H](Cc2cc(F)cc(F)c2)C(=O)N(C)c2ccc(C)nc2)cn1` [Example 172] are at least 100 µM and 0.58 µM.
`COc1ccc(N(C)C(=O)[C@H](Cc2ccccc2)NC(=O)C=C(C)CC(=O)N[C@@H](Cc2ccccc2)C(=O)N(C)c2ccc(OC)cc2)cc1` (single isomer, unassigned) [Example 113] registered a CC50 at 4 days in data set [1] of 25.3 µM. Also, in data set [2] (setting [3]), the EC50 came to 0.36 µM.
As for `COc1ccc(N(C)C(=O)[C@H](Cc2ccccc2)NC(=O)Cn2c(=O)n(CC(=O)N[C@@H](Cc3ccccc3)C(=O)N(C)c3ccc(OC)cc3)c3cc(OC)ccc32)cc1` [Example 83], the CC50 at 4 days in data set [1] is 6.2 µM. In data set [2] (setting [4]), the EC50 came out at 0.09 µM.
